Here are results for one compound from patent US20160287553A1, “TRANSLATION INHIBITORS IN HIGH-DOSE CHEMO- AND/OR HIGH-DOSE RADIOTHERAPY” (DEUTSCHES KREBSFORSCHUNGSZENTRUM, priority 2013, published 2016).

Entries after “also recorded” stand apart in the source; their conditions may differ.

One test concerns p53 protein synthesis. Briefly: Metabolic pulse-labeling and immunoprecipitation of p53. The format is cell-based, human. As to conditions: T cells, after Etoposide treatment, pulse-labeling (FIG. 6c). Here is the method:
Subsequently, cells were washed in ice-cold PBS, lysed in IP buffer (20 mM Tris-HCl, […], 2 mM EDTA, 1% Triton X-100, protease inhibitors) and centrifuged (10,000 g, 20 min) to clear lysates. Aliquots were taken for input control and lysates were incubated overnight with sepharose-coupled protein A beads, anti-p53 antibody (FL-393; Santa Cruz, Heidelberg, Germany) or isotype control antibody (Sigma-Aldrich, Munich, Germany). Two wash-steps with IP buffer preceded boiling of beads in denaturing sample buffer at 95° C. for […]. Incorporation of […] into p53 protein was detected by the phosphoimaging system FLA-7000 IR (Fujifilm Europe GmbH, Düsseldorf, Germany).
Thus, Roc-A suppresses DNA-damage-induced upregulation of p53 at the translational level.

The test system of a further test is Primary human T cells. The experiment in a line: Ionizing radiation (IR)-induced apoptosis in T cells. The format is cell-based. Here is the method: (§1) DNA fragmentation was determined by FACS.
(§2) The radioprotective effect mediated by Roc-A was the highest when cells were treated with Roc-A 1 h before radiation of cells (FIG. 1d). However, when cells were treated 4 h after radiation, the radioprotective effect was still higher than 50% (FIG. 1d).

The next test has as its system Peripheral blood T cells. The experiment in a line: Teniposide-, Doxorubicin- and Bleomycin-induced apoptotic cell death in T cells. The format is cell-based, human. To be noted: Roc-A 75 nM; increasing doses of the drugs (FIG. 1b). Here is the method: as §1, §2
A further test relates to p53. Briefly: p53 protein expression by immunoblot. The test is classed as cell-based, human. Here is the method:
Immunoblot analysis was carried out as previously described (Polier et al., Chem Biol. 2012; 19: 1093-1104). Briefly, 4-20×10^6 cells were treated with different reagents as indicated and lysed in RIPA buffer (50 mM Tris HCl, 137 mM NaCl, 0.5% Na Deoxycholate, 1% Triton X-100, 0.1% SDS, protease inhibitors). Proteins were separated by SDS-PAGE and transferred to a nitrocellulose membrane (Amersham Biosciences, Little Chalfon, UK) using a semi-dry blotting approach. The following antibodies were used: p53 (DO-1) antibody was purchased from Santa Cruz Biotechnology (Heidelberg, Germany). Tubulin and actin (A5441) antibodies were purchased from Sigma-Aldrich (St. Louis, USA).
The transcription factor p53 is a major regulator of DNA damage-induced apoptosis (Lowe et al., Cell. 1993; 74: 957-967). Therefore, we investigated the effect of Roc-A on the expression level of p53.
p53 protein expression can be regulated at the level of transcription, translation, and ubiquitination-mediated degradation (Marine & Lozano, Cell Death Differ. 2010; 17: 93-102). It has been shown that upon DNA damage p53 undergoes post-translational modifications leading to its deubiquitination and, thus, stabilization (Lee & Gu, Cell Death Differ. 2010; 17: 86-92). To investigate whether Roc-A could decrease p53 stability, we treated T cells with the proteasome inhibitor Bortezomib to block proteasome-mediated degradation.
(In general: A western blot detects proteins with antibodies after separation by electrophoresis.)

The subject of test [1] is Splenocytes from p53+/+ mice. Briefly: Etoposide-induced cell death in p53 wild-type splenocytes. The format is cell-based, mouse. To be noted: p53-WT splenocytes, 50 μM Etoposide, 75 nM Roc-A (FIG. 4b). Here is the method: as §1
P53^−/− C57B1/6 mice (B6.Trp53tm1Tyj) were kindly provided by Liu H-K (German Cancer Research Center, Heidelberg, Germany). Spleens of 8-12 week old p53^−/−, and p53^+/+ mice were isolated in parallel, minced and incubated for 30 min in RPMI-1640 medium supplemented with DNase I (50 U/ml) and Collagenase IV (1 mg/ml) at 37° C. and 5% CO2. Splenocytes were filtered by […] cell strainer, washed twice with ice-cold wash buffer (PBS, 0.5% FCS, 2 mM EDTA) and resuspended in Oxford medium (RPMI 1640, 10% FCS, 100 μg/ml Penicillin, 100 μg/ml Streptamycin, 10 mM Hepes, 50 μM β-Mercaptoethanol, 2 mM L-glutamine, 1 mM sodium pyruvate, 100 μM non-essential amino acids) at a concentration of 2×10^6 cells/ml.
To further investigate the role of p53 in Roc-A-mediated protection of T cells against DNA damage-induced apoptosis, we performed a p53 knock-down experiment using a siRNA approach (FIG. 4a, upper panel). […] Therefore, we examined the effect of Roc-A on p53 knock-out (KO) cells.

The test system of another test is NK cells. The experiment in a line: Etoposide-induced apoptosis in NK cells. As to conditions: NK cells (FIG. 1c). The test is classed as cell-based, human. On the procedure: as §1
Next, we asked whether Roc-A could also protect other normal primary cells from DNA damage-induced toxicity. To address this question, we examined the protective effect of Roc-A on Etoposide-treated human peripheral blood B cells, NK cells, neutrophils, cardiomyocytes and murine hematopoietic stem and progenitor cells (HSPCs).

In the case of `COc1ccc([C@@]23Oc4cc(OC)cc(OC)c4[C@]2(O)[C@H](O)[C@H](C(=O)N(C)C)[C@H]3c2ccccc2)cc1` [Roc-A, (1R,2R,3S,3aR,8bS)-1,8b-dihydroxy-6,8-dimethoxy-3a-(4-methoxyphenyl)-N,N-dimethyl-3-phenyl-2,3-dihydro-1H-cyclopenta[b][1]benzofuran-2-carboxamide], in the test with p53 protein synthesis, the “[35S]methionine incorporation into the p53 protein” value is “inhibits p53 protein translation; also recorded: suppressed [^35S]methionine incorporation into the p53 protein”. The “Radioprotective effect by time of Roc-A addition” value in the test on Primary human T cells (Roc-A 1 h before radiation (10 Gy) (FIG. 1d)) was “highest”. In addition, the “Radioprotective effect (percent of protection from IR-induced apoptosis)” value with Primary human T cells (Roc-A 4 h after radiation (10 Gy) (FIG. 1d)) is reported as “higher than 50%”. Further, in the test with Primary human T cells (increasing doses of IR, different concentrations of Roc-A, 24 h (FIG. 1e)), the “Ionizing radiation-induced apoptosis in T cells” value is “reduced ionizing radiation-induced apoptosis in T cells”. The “Drug-induced apoptosis (Teniposide, Doxorubicin, Bleomycin)” value in the test with Peripheral blood T cells is “reduces Teniposide-, Doxorubicin- and Bleomycin-induced apoptotic cell death in T cells; also recorded: could reduce drug-induced apoptosis in all cases”. Moreover, the “Etoposide-induced p53 increase” value with p53 (B cells (FIG. 3d)) and in the test on p53 (NK cells (FIG. 3e)) was “inhibits Etoposide-induced p53 upregulation; also recorded: suppressed” each time. Besides, in the test on p53 (T cells (FIG. 3b, f)), the “p53 upregulation by IR, Bleomycin, Teniposide, Doxorubicin” value is “inhibits Etoposide-(a), Bleomycin-, Teniposide- and Doxorubicin-(b) induced p53 upregulation in T cells; also recorded: inhibition was also observed”. The “Upregulation of p53, kinetic analysis” value in the test with p53 (T cells, 50 μM Etoposide, 75 nM Roc-A (FIG. 3c)) was “could inhibit upregulation of p53 at all time-points analyzed”. For the same compound, the “Etoposide-induced p53 protein expression” value with p53 (T cells, increasing Etoposide, different concentrations of Roc-A (FIG. 3a)) was “inhibits Etoposide-(a), Bleomycin-, Teniposide- and Doxorubicin-(b) induced p53 upregulation in T cells; also recorded: p53 expression was blocked in a dose-dependent manner”. Also, the “Protection against Etoposide-induced cell death” value in test [1] is “protected”. Further, the “Protection against Etoposide-induced apoptosis” value with NK cells is given as “protected”.
